Here are results for 1 compound from ChEMBL document CHEMBL4265889, “Design and synthesis of tetrahydropyridopyrimidine based Toll-Like Receptor (TLR) 7/8 dual agonists” (Bioorg Med Chem Lett, 2018).

One data set has as its target Cytochrome P450 2C19 (Homo sapiens, UniProt P33261). Nature of the data set: Inhibition of CYP2C19 (unknown origin). It is filed as ADME.
The target of data set [1] is T1, Toll-like receptor 8 (Homo sapiens) (UniProt Q9NR97).
T1 sequence (whole entry): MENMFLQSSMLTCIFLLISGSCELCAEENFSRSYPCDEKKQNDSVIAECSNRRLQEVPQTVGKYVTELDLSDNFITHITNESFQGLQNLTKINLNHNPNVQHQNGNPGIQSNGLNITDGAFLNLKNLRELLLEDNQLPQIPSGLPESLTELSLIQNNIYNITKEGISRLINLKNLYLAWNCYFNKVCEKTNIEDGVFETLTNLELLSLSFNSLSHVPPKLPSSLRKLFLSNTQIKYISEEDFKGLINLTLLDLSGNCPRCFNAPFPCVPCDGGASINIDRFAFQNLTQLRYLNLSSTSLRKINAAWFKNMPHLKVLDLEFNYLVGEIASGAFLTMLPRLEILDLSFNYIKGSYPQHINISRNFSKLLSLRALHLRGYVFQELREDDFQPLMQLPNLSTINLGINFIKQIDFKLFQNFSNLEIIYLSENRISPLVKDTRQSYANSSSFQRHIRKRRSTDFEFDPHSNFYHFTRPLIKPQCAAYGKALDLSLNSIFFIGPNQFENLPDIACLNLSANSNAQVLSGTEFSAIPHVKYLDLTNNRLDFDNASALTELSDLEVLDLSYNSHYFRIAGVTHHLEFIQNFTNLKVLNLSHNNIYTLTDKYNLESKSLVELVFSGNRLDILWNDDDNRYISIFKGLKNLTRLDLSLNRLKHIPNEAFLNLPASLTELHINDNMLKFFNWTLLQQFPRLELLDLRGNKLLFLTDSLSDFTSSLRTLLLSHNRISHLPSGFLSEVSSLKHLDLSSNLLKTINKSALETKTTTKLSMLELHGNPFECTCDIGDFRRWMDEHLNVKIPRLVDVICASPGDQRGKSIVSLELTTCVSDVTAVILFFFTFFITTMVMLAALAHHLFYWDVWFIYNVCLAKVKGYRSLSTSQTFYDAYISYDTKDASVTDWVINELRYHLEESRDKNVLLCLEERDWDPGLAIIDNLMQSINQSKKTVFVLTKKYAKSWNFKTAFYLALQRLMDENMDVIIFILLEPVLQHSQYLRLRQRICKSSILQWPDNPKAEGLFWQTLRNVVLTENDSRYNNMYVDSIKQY
Put plainly: Agonist activity at human TLR8 expressed in HEK293 cells after 6 hrs by NFkappaB-luciferase reporter gene assay. It is filed as cell-based. A general note: In a reporter assay the amount or activity of a reporter protein is the signal.

Data set [2] has as its target T2, Toll-like receptor 7 (Homo sapiens) (UniProt Q9NYK1).
T2 sequence (whole entry): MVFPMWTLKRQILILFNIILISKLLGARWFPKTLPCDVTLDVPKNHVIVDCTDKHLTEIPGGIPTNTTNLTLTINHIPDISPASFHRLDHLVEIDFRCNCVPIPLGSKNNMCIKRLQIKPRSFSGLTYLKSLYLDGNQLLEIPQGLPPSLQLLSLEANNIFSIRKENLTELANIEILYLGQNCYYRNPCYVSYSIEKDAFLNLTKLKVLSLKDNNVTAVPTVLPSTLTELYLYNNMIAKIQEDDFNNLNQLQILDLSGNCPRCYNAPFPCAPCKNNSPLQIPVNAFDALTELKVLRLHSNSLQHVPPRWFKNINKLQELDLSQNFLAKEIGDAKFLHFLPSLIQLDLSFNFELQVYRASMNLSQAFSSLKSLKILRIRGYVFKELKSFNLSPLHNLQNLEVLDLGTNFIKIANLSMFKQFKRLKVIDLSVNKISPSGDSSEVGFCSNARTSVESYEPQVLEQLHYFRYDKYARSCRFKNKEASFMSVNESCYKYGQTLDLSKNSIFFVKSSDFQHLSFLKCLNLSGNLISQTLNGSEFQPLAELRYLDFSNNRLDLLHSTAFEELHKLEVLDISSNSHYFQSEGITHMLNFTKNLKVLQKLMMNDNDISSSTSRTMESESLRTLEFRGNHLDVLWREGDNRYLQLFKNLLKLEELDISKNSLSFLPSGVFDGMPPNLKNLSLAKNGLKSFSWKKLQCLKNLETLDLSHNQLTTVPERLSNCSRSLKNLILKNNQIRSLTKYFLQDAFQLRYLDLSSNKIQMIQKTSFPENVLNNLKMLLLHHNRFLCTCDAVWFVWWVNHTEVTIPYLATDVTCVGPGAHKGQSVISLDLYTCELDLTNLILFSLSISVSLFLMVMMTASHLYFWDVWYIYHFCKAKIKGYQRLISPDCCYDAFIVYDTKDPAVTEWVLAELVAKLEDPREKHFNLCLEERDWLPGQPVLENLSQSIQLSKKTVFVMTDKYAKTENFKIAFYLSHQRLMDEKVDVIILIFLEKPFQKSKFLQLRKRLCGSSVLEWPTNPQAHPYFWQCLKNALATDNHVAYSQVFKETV
Nature of the data set: Agonist activity at TLR7 in human PBMC assessed as suppression of HCV replicon replication in human HuH7 luc/neo cells harboring RNA encoding bicistronic expression construct comprising wild type HCV type 1b NS3-NS5B regions exposed to conditioned media from compound treated PBMCs after 24 hrs by luciferase reporter gene assay. It is filed as cell-based. Background: Replicon systems follow genome replication, usually without infectious particles.

Data set [3] in a line: Drug metabolism in mouse liver microsomes at 1 uM after 15 mins. It is filed as ADME, microsome. The note with it: read-out: Drug metabolism.
Data set [4] in a line: Drug metabolism in human liver microsomes at 1 uM after 15 mins. The note with it: read-out: Drug metabolism. It is filed as ADME, microsome. On the technique in general: Microsomes from liver hold many membrane-bound enzymes, among them those of drug oxidation.

Sequence of Cytochrome P450 2C19 (P33261 whole entry): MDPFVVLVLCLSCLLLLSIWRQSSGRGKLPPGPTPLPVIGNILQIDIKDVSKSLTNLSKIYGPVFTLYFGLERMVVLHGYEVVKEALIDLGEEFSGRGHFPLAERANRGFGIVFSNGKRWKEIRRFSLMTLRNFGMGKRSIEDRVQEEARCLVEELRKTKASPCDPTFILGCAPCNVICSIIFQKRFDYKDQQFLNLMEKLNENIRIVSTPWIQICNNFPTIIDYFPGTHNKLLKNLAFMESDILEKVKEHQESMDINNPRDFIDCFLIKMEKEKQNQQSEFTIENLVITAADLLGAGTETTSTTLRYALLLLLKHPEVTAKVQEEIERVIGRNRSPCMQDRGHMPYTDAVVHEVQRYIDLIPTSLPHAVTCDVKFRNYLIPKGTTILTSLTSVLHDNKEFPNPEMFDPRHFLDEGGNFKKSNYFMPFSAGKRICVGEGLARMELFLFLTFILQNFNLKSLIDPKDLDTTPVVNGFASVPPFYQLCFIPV

Broadly, the IC50 is the concentration that inhibits the measured activity by half. At Cytochrome P450 2C19, `CCC[C@@H](CCO)Nc1nc(N)nc2c1CN(C(=O)c1csc(C)n1)CC2` displayed an IC50 greater than 10 µM. In addition, the MEC in data set [1] came to 3.4 µM; in data set [2], 0.2 µM. Further, the metabolised at 0.25 h, 1 µM amounted to 33% in data set [3] and 21% in data set [4].
